Several values for one entry are separate records, joined by “and”; a condition that tells them apart may be missing. Equal values may be shown once. Entries after “also recorded” stand apart in the source; their conditions may differ. Read-outs that look alike come from different tables or passages of the source.
Columns and labels:
[1] = target: T1, PSMA (Homo sapiens, UniProt Q04609); assay: Equilibrium dissociation constant Kd / Bmax, saturation binding on PSMA-positive LNCaP cells; conditions: Scatchard plots
T1 construct: host or cells: LNCaP cells
Protocol: The equilibrium dissociation constant describing the interaction of the radiolabeled ligands with the PSMA binding sites was determined in PSMA-positive LNCaP cell lines (Cell Line Service, Eppelheim, Germany). LNCaP cells were seeded at a density of 10^6 cells/well on a 6-well plate (Corning, ME, USA) and incubated under 5% CO2 at 37 °C for 48 h with medium (minimum essential medium Eagle supplemented with 2 mM L-glutamine, 0.1 mM non-essential amino acids (NEAA), 1.0 mM sodium pyruvate, 10% fetal bovine serum, 100 U/ml penicillin, and 100 µg/ml streptomycin) (Lonza, Verviers, Belgium) in a humidified incubator (Thermo Heracell 150 CO2-Incubator, MA, USA). To determine the nonspecific binding, the medium was removed from selected wells, and 1 ml of a solution of 0.1 mM of 2-(phosphonomethyl)-pentanedioic acid (2-PMPA) in fresh medium was added. […] The plates were then incubated under 5% CO2, at 37 °C for 1 h. After that, the medium was removed and the cells incubated under the same incubation conditions for 3 h with different concentrations (0.25 nM, 2.5 nM, 5 nM, 10 nM, 25 nM, 50 nM, and 75 nM) of the radiotracer under investigation in 1 ml fresh medium.
After 3 h, the cells were washed three times with 1 ml PBS, and the cells were finally lysed by adding 1 ml of 1 M NaOH and incubating them for 10 min at room temperature. All samples were measured with a gamma counter (Nuklear Medizintechnik Dresden Isomed 100, Dresden, Germany) and were decay-corrected. The equilibrium dissociation constant (Kd) and the maximum density of receptors (Bmax) were calculated by non-linear regression using GraphPad Prism 8.0.2 (GraphPad Software, San Diego, USA).

[2] = test system: LNCaP cells; assay: Cellular uptake (specific cell binding) in LNCaP cells; assay type: cell-based; conditions: n=3
Protocol: (§1) The cell binding determined in these experiments is the sum of specific and nonspecific cell binding. To determine the values for nonspecific cell binding and internalization, all experiments were additionally performed in the presence of 2-PMPA.
(§2) The plates were incubated for 1 h; after which, 0.75 pmol of the radiotracer to be examined was added to 1 ml of fresh medium. The cells were incubated for 30 min, 1, 2, 3, and 5 h. At each time point, the supernatant was removed and the cells washed with 1 ml of PBS. To dissociate the receptor-bound radioligand, the cells were washed twice with 1 ml of a 0.1 M glycine buffer solution at pH 2.8 for 5 min. The 0.1 M glycine–HCl buffer dissociated all the surface-bound complexes. The cells were then washed with 1 ml of PBS, and the internalized fraction was determined by solubilizing the cells with 1 ml of 1 M NaOH and incubating them for 10 min at room temperature. The radioactivity collected from the culture medium, 0.1 M glycine (surface-bound), and 1 M NaOH (internalized fraction) was measured in a gamma counter and decay-corrected. Cell binding was calculated from the surface-bound (0.1 M glycine) and the internalized fraction (1 M NaOH). The internalized fraction was expressed as a percentage of cell binding (internalization to cell-bound radioactivity ratio). All cell uptake experiments were run in triplicate.

[3] = test system: LNCaP cells; assay: Internalization in LNCaP cells; assay type: cell-based; conditions: n=3
Protocol: as §1, §2

[4] = test system: prostate cancer relapse; assay: First-in-human PET/CT scan in a patient with biochemical recurrence of prostate cancer; conditions: for SUVmax left prostate lobe / SUVmax right prostate lobe: 93 MBq
Protocol: The patient had given their written informed consent for PET imaging and the scientific evaluation of their data. All procedures were performed in accordance with the Institutional Review Board and the regulations of the regional authorities in Cologne. The kidney dose was estimated on the basis of two PET scans. The following assumptions were made for the estimation: Between time 0 (injection) and the first measuring point, the time-activity-curve follows a constant progression. All measuring points were integrated numerically using trapezoidal approximation. From the last measuring point to infinity, a mono-exponential function was fitted and integrated. As the effective half-life could not be accurately determined from two measurement points, the physical half-life of Zr-89 was used instead.

[5] = test system: LNCaP tumor xenografts; conditions: for Tumor/blood ratio / Tumor/kidneys ratio / Tumor/liver ratio / Tumor/muscle ratio: LNCaP xenograft mice; for Biodistribution Blood / Biodistribution Bone / Biodistribution Heart / Biodistribution Intestine / Biodistribution Kidneys / Biodistribution LNCAP-tumor / Biodistribution Liver / Biodistribution Lung / Biodistribution Muscle / Biodistribution Prostate / Biodistribution Spleen / Biodistribution Thyroid: i.v. 30 pmol, n=5
[6] = test system: LNCaP tumor xenograft; assay: Small-animal PET in mice bearing an LNCaP tumor xenograft, with and without blocking by 2-PMPA

T1 sequence (Q04609 whole entry): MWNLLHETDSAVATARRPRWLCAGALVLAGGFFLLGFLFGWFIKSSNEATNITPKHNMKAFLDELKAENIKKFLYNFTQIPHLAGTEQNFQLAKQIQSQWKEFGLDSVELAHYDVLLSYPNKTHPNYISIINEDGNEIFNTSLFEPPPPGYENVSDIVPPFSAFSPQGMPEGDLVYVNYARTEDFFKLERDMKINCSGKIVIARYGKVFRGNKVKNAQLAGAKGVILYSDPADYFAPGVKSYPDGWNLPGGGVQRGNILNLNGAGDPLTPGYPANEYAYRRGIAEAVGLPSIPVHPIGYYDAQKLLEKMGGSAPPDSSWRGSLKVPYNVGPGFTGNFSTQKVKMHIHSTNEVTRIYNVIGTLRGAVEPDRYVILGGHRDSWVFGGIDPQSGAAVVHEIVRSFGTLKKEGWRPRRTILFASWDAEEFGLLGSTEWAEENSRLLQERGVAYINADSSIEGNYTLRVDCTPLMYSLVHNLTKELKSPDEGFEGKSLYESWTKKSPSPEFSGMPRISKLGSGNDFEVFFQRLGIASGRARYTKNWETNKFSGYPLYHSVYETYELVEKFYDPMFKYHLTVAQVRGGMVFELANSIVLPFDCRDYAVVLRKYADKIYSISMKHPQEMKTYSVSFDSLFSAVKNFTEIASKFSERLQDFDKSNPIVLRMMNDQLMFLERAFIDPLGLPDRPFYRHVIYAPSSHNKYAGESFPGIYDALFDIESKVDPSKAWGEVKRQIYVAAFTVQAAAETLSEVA

## CC(=O)N1CCCCCNC(=O)CCC(=O)N2CCCCCNC(=O)CCC(=O)N(CCCCCNC(=O)CCC(=O)NCC3CCC(C(=O)NC(Cc4ccc5ccccc5c4)C(=O)NCCCCC(NC(=O)NC(CCC(=O)O)C(=O)O)C(=O)O)CC3)[O][89Zr+]([O]1)[O]2 (centres unmarked) [[^89Zr]Zr-PSMA-DFO, [^89Zr]Zr-N-sucDf-AMCHA-2Nal-EuK]
[1]
  Bmax (maximum achievable concentration on 10^6 tumor cells): 1428 ± 42 fmol/10^6 cells
[2]; 0.5 h
  Specific binding in LNCaP cells as percentage of total activity: 29.1±2.1%
[2]; 1 h
  Specific binding in LNCaP cells as percentage of total activity: 38.5±2.3%
[2]; 2 h
  Specific binding in LNCaP cells as percentage of total activity: 46.5±1.3%
[2]; 3 h
  Specific binding in LNCaP cells as percentage of total activity: 48.8±1.0%
[2]; 5 h
  Specific binding in LNCaP cells as percentage of total activity: 49.4±1.3%
[3]; 0.5 h
  Specific internalized activity as percentage of specific cell-bound activity: 32.7±4.1%
[3]; 1 h
  Specific internalized activity as percentage of specific cell-bound activity: 39.8±0.4%
[3]; 2 h
  Specific internalized activity as percentage of specific cell-bound activity: 48.0±3.4%
[3]; 3 h
  Specific internalized activity as percentage of specific cell-bound activity: 50.0±0.6%
[3]; 5 h
  Specific internalized activity as percentage of specific cell-bound activity: 61.7±3.4%
[4]
  Overall effective dose (ICRP 60): 0.11 mSv/MBq
[4]; 48 h p.i.
  SUVmax left prostate lobe: 9.47
  SUVmax right prostate lobe: 13.25
[4]; 72 h p.i.
  SUVmax left prostate lobe: 7.14
  SUVmax right prostate lobe: 13.05
[4]; estimated from two PET scans
  Kidney dose: 2.8 mGy/MBq
37 °C, PBS and human serum, TLC, HPLC in PBS, listed as Zr-89-radioligand
  Period over which the radioligand was found stable: 7 days
Storage in aqueous solution for 7 days
  Radiochemical purity remaining on storage: > 99%
[5]; 2 h p.i.
  Tumor/blood ratio: 183 ± 42
  Tumor/kidneys ratio: 0.31 ± 0.06
  Tumor/liver ratio: 27.5 ± 3.2
  Tumor/muscle ratio: 534 ± 62
  Biodistribution Blood: 0.14 ± 0.02 %ID/g
  Biodistribution Bone: 0.15 ± 0.04 %ID/g
  Biodistribution Heart: 0.11 ± 0.05 %ID/g
  Biodistribution Intestine: 0.65 ± 0.15 %ID/g
  Biodistribution Kidneys: 86.7 ± 18.7 %ID/g
  Biodistribution LNCAP-tumor: 26.3 ± 5.3 %ID/g
  Biodistribution Liver: 0.95 ± 0.15 %ID/g
  Biodistribution Lung: 0.5 ± 0.04 %ID/g
  Biodistribution Muscle: 0.05 ± 0.02 %ID/g
  Biodistribution Prostate: 0.15 ± 0.04 %ID/g
  Biodistribution Spleen: 0.49 ± 0.07 %ID/g
  Biodistribution Thyroid: 0.18 ± 0.03 %ID/g
[5]; 4 h p.i.
  Tumor/blood ratio: 180 ± 61
  Tumor/kidneys ratio: 0.55 ± 0.01
  Tumor/liver ratio: 29.6 ± 5.1
  Tumor/muscle ratio: 297 ± 62
  Biodistribution Blood: 0.13 ± 0.04 %ID/g
  Biodistribution Bone: 0.13 ± 0.03 %ID/g
  Biodistribution Heart: 0.12 ± 0.03 %ID/g
  Biodistribution Intestine: 0.54 ± 0.10 %ID/g
  Biodistribution Kidneys: 41.3 ± 2.37 %ID/g
  Biodistribution LNCAP-tumor: 22.8 ± 1.5 %ID/g
  Biodistribution Liver: 0.79 ± 0.17 %ID/g
  Biodistribution Lung: 0.12 ± 0.03 %ID/g
  Biodistribution Muscle: 0.08 ± 0.02 %ID/g
  Biodistribution Prostate: 1.12 ± 0.16 %ID/g
  Biodistribution Spleen: 0.61 ± 0.09 %ID/g
  Biodistribution Thyroid: 0.13 ± 0.02 %ID/g
[5]; 24 h p.i.
  Tumor/blood ratio: 309 ± 89
  Tumor/kidneys ratio: 1.0 ± 0.3 and 1.02 ± 0.28
  Tumor/liver ratio: 40.0 ± 1.1
  Tumor/muscle ratio: 450 ± 38
  Biodistribution Blood: 0.05 ± 0.01 %ID/g
  Biodistribution Bone: 0.18 ± 0.02 %ID/g
  Biodistribution Heart: 0.09 ± 0.02 %ID/g
  Biodistribution Intestine: 0.25 ± 0.08 %ID/g
  Biodistribution Kidneys: 15.4 ± 4.1 %ID/g
  Biodistribution LNCAP-tumor: 14.9 ± 1.2 %ID/g
  Biodistribution Liver: 0.37 ± 0.03 %ID/g
  Biodistribution Lung: 0.04 ± 0.01 %ID/g
  Biodistribution Muscle: 0.03 ± 0.01 %ID/g
  Biodistribution Prostate: 0.50 ± 0.01 %ID/g
  Biodistribution Spleen: 0.36 ± 0.08 %ID/g
  Biodistribution Thyroid: 0.05 ± 0.01 %ID/g
[5]; mice, 24 h or 48 h p.i., biokinetics and small-animal PET
  In vivo stability (no time-dependent increase in Zr-89 accumulation in bone): convincing in vivo stability
[6]; 48 h p.i., 10 MBq
  Visibility of LNCaP tumor xenograft in PET: still clearly visible; also recorded: remained clearly visible
[6]; mice, 48 h after injection
  Radioactivity in the bladder: no detectable radioactivity
[6]; mouse, blocking experiment with 2-PMPA
  Share of renal radioactivity due to specific binding: approximately two-thirds
